# Experiments:
# Format in all cases: physicochemical
# [1] = Method B: solubility of active ingredient in solvent by visual evaluation of a concentration ladder; conditions: Method B (visual, 24 hours, 21° C.); for Active Ingredient Solubility: 2,4-D Acid: 2,4-dichlorophenoxyacetic acid dissolved in the named solvent; for Active Ingredient Solubility: MCPA: 2-methyl-4-chlorophenoxyacetic acid dissolved in the named solvent; for Active Ingredient Solubility: NBPT: N-(n-butyl)thiophosphoric triamide dissolved in the named solvent; for Active Ingredient Solubility: Bifenthrin: bifenthrin dissolved in the named solvent; for Active Ingredient Solubility: Tebuconazole: tebuconazole dissolved in the named solvent
# Description: (§1) The solubilities of active ingredients in the Ether Ketone Solvents and Comparative Solvents are determined on a saturated solution of a given active ingredient in a given solvent using NMR spectroscopy (Method A, as described below), or by visual evaluation of a concentration ladder of a given active ingredient in a given solvent (Method B, as described below).
# (§2) [formula] When possible, several well-resolved peaks are used for both solvent and active ingredient, and averaged to provide an estimation of variability in the measurement. Method B: Solubility Determination by Visual Evaluation
# Four-milliliter (mL) vials are charged with active ingredient (10 to 50 wt %), a stir bar, and solvent (90 to 50 wt %). The vials are capped and taped to seal. The vials are secured in a vial rack and shaken on a laboratory shaker for 24 hours at ambient lab temperature of 21° C. and 51% humidity. After 24 hours each sample set is evaluated for solubility of solid.
# [2] = Method A: solubility of active ingredient in solvent by NMR spectroscopy of a saturated solution; conditions: for Active Ingredient Solubility: Dicamba Acid: dicamba acid dissolved in the named solvent; for Active Ingredient Solubility: Nitrapyrin: nitrapyrin dissolved in the named solvent; for Active Ingredient Solubility: 2,4-D Acid: 2,4-dichlorophenoxyacetic acid dissolved in the named solvent; for Active Ingredient Solubility: MCPA: 2-methyl-4-chlorophenoxyacetic acid dissolved in the named solvent; for Active Ingredient Solubility: NBPT: N-(n-butyl)thiophosphoric triamide dissolved in the named solvent; for Active Ingredient Solubility: Bifenthrin: bifenthrin dissolved in the named solvent; for Active Ingredient Solubility: Tebuconazole: tebuconazole dissolved in the named solvent
# Description: as §1
# Method A: Solubility Determination by NMR Spectroscopy
# A saturated solution of a given active ingredient in a solvent is prepared by initially combining the active ingredient (0.8 g) and solvent (1.5 mL) in a vial and stirring vigorously for at least 24 hours. If a homogeneous solution is obtained, additional active ingredient is added until a significant amount of solid remains out of solution. The mixtures (˜0.25 mL) are then filtered with a PTFE syringe filter (0.45 μm) into an NMR tube that contained C6D6 (0.5 mL). The NMR tubes are capped and analyzed on Varian 400 NMR spectrometer equipped with an auto sampler. Proton NMR spectra are referenced to the residual proton peak in the deuterated solvent. Spectra used for quantitation are collected with a 180 second delay between pulses. Spectra are processed in MestReNova (version 11.0.4-18998) by baseline (Bernstein Polynomials) and phase correcting each spectrum followed by integration of all well-resolved solvent and active resonances. Active ingredient weight percentages are estimated by the following formula:
# as §2
# [3] = Solubility of water in Ether Ketone Solvent (dropwise addition, weighing); conditions: water in dried solvent; lab temperature 30° C.
# Description: (§3) The solubilities of water in certain of the Ether Ketone Solvents are also evaluated. A vial is charged with 5 grams of the specified solvent, and 3 Å activated molecular sieves (˜300 mg) are added. The vial is capped and the solvent left to dry for several days. The mixtures are filtered using a 0.2 μm syringe filter into a tared 20 mL vial and the weights are noted. Water is then added using a 10 μL syringe until the mixture appeared to have water droplets on the bottom of the vial. The mixture is weighed again and the weight percent solubility of water in the Ether Ketone solvent is calculated. The temperature in the lab is 30° C. at the time of the water solubility measurements.
# [4] = Solubility of Ether Ketone Solvent in water (dropwise addition, weighing); conditions: lab temperature 30° C.
# Description: The solubilities of certain of the Ether Ketone Solvents in water are determined by adding water (˜10 to 50 grams) to a tared vial equipped with a stir bar. The weights of water are noted. The specified solvent is added dropwise using a 10 μL syringe until the mixture appeared to have solvent droplets suspended in the water. The mixture is weighed again and the weight percent solubility of the Ether Ketone Solvent in water is calculated.
# as §3
Structure (SMILES),"Active Ingredient Solubility: 2,4-D Acid [1]",Active Ingredient Solubility: MCPA [1],Active Ingredient Solubility: NBPT [1],Active Ingredient Solubility: Bifenthrin [1],Active Ingredient Solubility: Tebuconazole [1],Active Ingredient Solubility: Dicamba Acid [2],Active Ingredient Solubility: Nitrapyrin [2],Solubility Water In [3],Solubility In Water [4],"Active Ingredient Solubility: 2,4-D Acid [2]",Active Ingredient Solubility: MCPA [2],Active Ingredient Solubility: NBPT [2],Active Ingredient Solubility: Bifenthrin [2],Active Ingredient Solubility: Tebuconazole [2]
CC(=O)c1ccccc1 [Acetophenone],<30 wt %,<30 wt %,<30 wt %,<50 wt %,<30 wt %,49.8 wt %,55.4 wt %,–,–,–,–,–,–,–
"CCCCOCC(=O)CC [BnB Ketone, 1-Butoxy-2-butanone]",–,–,–,–,–,48.9 wt %,55.0 wt %,0.11 wt %,0.43 wt %,15.6 wt %,21.6 wt %,21.0 wt %,42.6 wt %,16.9 wt %
"CCCCCCOCC(=O)CC [BnH Ketone, 1-Hexyloxy-2-butanone]",–,–,–,–,–,42.5 wt %,46.2 wt %,0.02 wt %,0.22 wt %,12.8 wt %,17.5 wt %,13.6 wt %,37.3 wt %,13.5 wt %
"CCCCCCCCOCC(=O)CC [BnO Ketone, 1-Octyloxy-2-butanone]",–,–,–,–,–,36.5 wt %,41.6 wt %,–,–,10.2 wt %,15.3 wt %,10.0 wt %,33.9 wt %,12.0 wt %
O=C1CCCCC1 [Cyclohexanone],<40 wt %,<50 wt %,<50 wt %,Sol. at 50 wt %,<50 wt %,62.4 wt %,65.2 wt %,–,–,–,–,–,–,–
"CCCCOCC(CC)OCC(=O)CC (stereo not drawn) [DBnB Ketone, 1-((1-Butoxy-2-butanyl)oxy)-2-butanone]",–,–,–,–,–,45.6 wt %,42.6 wt %,–,–,13.2 wt %,17.1 wt %,15.7 wt %,34.7 wt %,10.5 wt %
"CCCCCCOCC(CC)OCC(=O)CC (stereo not drawn) [DBnH Ketone, 1-((1-(Hexyloxy)-2-butanyl)oxy)-2-butanone]",–,–,–,–,–,42.5 wt %,39.8 wt %,–,–,10.9 wt %,17.2 wt %,10.5 wt %,33.8 wt %,11.2 wt %
"CCCCOCC(C)OCC(C)=O (stereo not drawn) [DPnB Ketone, 1-((1-(Butoxy)-2-propanyl)oxy)-2-propanone]",–,–,–,–,–,52.7 wt %,45.4 wt %,0.03 wt %,0.20 wt %,18.3 wt %,23.7 wt %,25.5 wt %,33.4 wt %,15.0 wt %
"CCCCCCOCC(C)OCC(C)=O (stereo not drawn) [DPnH Ketone, 1-((1-(Hexyloxy)-2-propanyl)oxy)-2-propanone]",–,–,–,–,–,48.4 wt %,39.0 wt %,0.03 wt %,0.22 wt %,16.4 wt %,22.1 wt %,25.3 wt %,35.5 wt %,12.5 wt %
"CCCCCOCC(C)OCC(C)=O (stereo not drawn) [DPnPent Ketone, 1-((1-(Pentyloxy)-2-propanyl)oxy)-2-propanone]",–,–,–,–,–,48.7 wt %,41.8 wt %,–,–,15.0 wt %,22.0 wt %,24.4 wt %,31.8 wt %,12.0 wt %
"CCCCOCC(C)=O [PnB Ketone, 1-Butoxy-2-propanone]",–,–,–,–,–,54.0 wt %,53.4 wt %,0.005 wt %,0.20 wt %,20.2 wt %,26.8 wt %,32.8 wt %,43.3 wt %,25.1 wt %
"CCCCCCCCOCC(C)=O [PnO Ketone, 1-Octyloxy-2-propanone]",–,–,–,–,–,40.6 wt %,42.9 wt %,–,–,12.6 wt %,17.1 wt %,15.9 wt %,35.4 wt %,12.5 wt %
"CCCCCOCC(C)=O [PnPent Ketone, 1-Pentyloxy-2-propanone]",–,–,–,–,–,49.1 wt %,49.0 wt %,–,–,17.3 wt %,22.9 wt %,24.2 wt %,40.2 wt %,16.7 wt %
"CCCCOCC(C)OCC(C)OCC(C)=O (stereo not drawn) [TPnB Ketone, 1-((1-((1-Butoxy-2-propanyl)oxy)-2-propanyl)oxy)-2-propanone]",–,–,–,–,–,49.7 wt %,37.0 wt %,–,–,16.3 wt %,22.5 wt %,22.1 wt %,13.0 wt %,10.8 wt %
